# Reference: publication PMC10461224, “Development of an Affinity-Based Probe to Profile Endogenous Human Adenosine A3 Receptor Expression” (Journal of Medicinal Chemistry, 2023)
# Marks after values point to notes of the source that are not given here.
# Tests used:
# hA3AR [1] = biological target: T1, hA3AR (Homo sapiens, UniProt P0DMS8); experiment: Wash-out assay, [3H]PSB-11 binding after washing; conditions: 1 μM compound, pre-incubated 2 h at 25 °C, washed 4 times
# T1 construct: expressed in transfected cells; host or cells: CHO cells (CHOhA3AR), gift of Prof; K.N. Klotz, University of Würzburg; used as membrane fractions or live cells
# T1 sequence (P0DMS8 1-318): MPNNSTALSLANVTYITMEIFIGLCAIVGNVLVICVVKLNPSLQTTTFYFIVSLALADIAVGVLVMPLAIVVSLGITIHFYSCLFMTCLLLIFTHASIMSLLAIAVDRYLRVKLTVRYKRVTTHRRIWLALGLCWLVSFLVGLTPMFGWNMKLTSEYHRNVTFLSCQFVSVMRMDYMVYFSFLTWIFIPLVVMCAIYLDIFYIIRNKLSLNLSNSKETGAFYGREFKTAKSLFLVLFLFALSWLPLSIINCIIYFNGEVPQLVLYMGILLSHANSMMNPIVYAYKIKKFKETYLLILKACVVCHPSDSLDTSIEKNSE
# Experimental: 200 μL assay buffer (50 mM Tris–HCl, pH 8.0, 10 mM MgCl2, 1 mM EDTA and 0.01% CHAPS), 100 μL assay buffer containing the competing ligand (final concentration: 1 μM), and 100 μL of CHOhA3AR membrane fractions (100 μg protein) were combined and pre-incubated for 2 h at 25 °C while shaking. The ‘4× washed’ samples were centrifuged (5 min, 13,000 rpm, 4 °C), and the supernatant was removed. The resulting pellet was dissolved in 1 mL of assay buffer and incubated for 10 min at 25 °C while shaking. The ‘4× washed’ samples were then again centrifuged (2 min, 13,000 rpm, 4 °C), the supernatant was removed, and the resulting pellet was dissolved in 1 mL of assay buffer. The latter washing steps were repeated two times (four times washing total), and the final pellet was dissolved in 300 μL assay buffer. The radioligand (10 nM [^3H]PSB-11) in 100 μL of assay buffer was added to all samples, and the samples were incubated at 25 °C for 1 h. Nonspecific binding was determined in the presence of 100 μM NECA. Incubations were terminated by addition of 1 mL of ice-cold washing buffer (50 mM Tris–HCl, pH 8.0, 10 mM MgCl2, 1 mM EDTA) and rapid vacuum filtration through prewetted 96-well GF/B filter plates using a Brandel harvester. Filters were subsequently washed 5 times with ice-cold wash buffer. The plates were dried under vacuum, and a MicroscintTM-20 cocktail (PerkinElmer) was added subsequently. After 3 h, the filter-bound radioactivity was determined using a 2450 MicroBeta Microplate Counter (PerkinElmer).
# hA2BAR = biological target: hA2BAR; parameters: method as in PMID 35395239; conditions: taken from previous experiments ref 71; read-out: KD at CHO-spap-hA2BAR membranes; cited from earlier work
# hA1AR = biological target: T2, hA1AR (Homo sapiens, UniProt P30542); experiment: Full curve displacement assays on the hA1AR; assay type: binding; conditions: from full curve displacement assays (Table S1)
# T2 construct: expressed in transfected cells; host or cells: CHO cells (CHOhA1AR), gift of Prof; S.J. Hill, University of Nottingham; membrane fractions
# T2 sequence (P30542 1-326): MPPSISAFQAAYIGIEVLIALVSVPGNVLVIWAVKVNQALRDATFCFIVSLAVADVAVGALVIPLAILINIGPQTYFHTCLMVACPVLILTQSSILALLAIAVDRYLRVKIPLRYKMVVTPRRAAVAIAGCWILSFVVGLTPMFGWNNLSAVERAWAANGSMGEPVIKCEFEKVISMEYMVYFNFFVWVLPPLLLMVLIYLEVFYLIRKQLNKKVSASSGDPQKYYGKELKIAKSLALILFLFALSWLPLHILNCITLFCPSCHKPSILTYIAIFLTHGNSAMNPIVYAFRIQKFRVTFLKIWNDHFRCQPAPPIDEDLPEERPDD
# Experimental: The affinity of the synthesized AfBPs was determined in radioligand binding experiments. First, single concentration displacement assays were carried out on all four human adenosine receptors, using a final probe concentration of 1 μM (Table 1). […] This quick screen indicated a good selectivity toward the hA3AR over the other human ARs, a trend that was also observed in the case of the parent compound.[34] Next, the ‘apparent’ affinities (depicted as pKi values) toward the hA3AR were determined using full curve displacement assays. To study the presumable covalent mode of action, the apparent affinity was determined with (pre-4 h) and without (pre-0 h) 4 h of pre-incubation of AfBP with hA3AR, prior to addition of radioligand. […] This difference in affinity was reflected in a shift in apparent pKi. […] To further investigate selectivity toward the hA3AR over the hA1AR, full curve displacement assays were carried out on the hA1AR.
# (§1) […]. Single point displacement values shown are mean percentages of two individual experiments performed in duplicate. All pKi values shown are mean values ± SEM of three individual experiments performed in duplicate. Statistical analysis was performed using a one-way ANOVA test with multiple comparisons (****p < 0.0001).
# hA3AR [2] = biological target: T1, hA3AR; experiment: Single-point radioligand displacement, [3H]PSB-11; assay type: binding; conditions: 1 μM probe; CHO cell membranes; co-incubated with radioligand 30 min at 25 °C; mean of two experiments
# Experimental: (§2) Membrane aliquots containing 15 μg (CHOhA3AR), 5 μg (CHOhA1AR), or 30 μg (HEK293hA2AAR and CHO-spap-A2BAR) of protein were resuspended in assay buffer (A3AR: 50 mM Tris–HCl, pH 8.0, 10 mM MgCl2, 1 mM EDTA, 0.01% CHAPS; A1AR and A2AAR: 50 mM Tris–HCl, pH 7.4; A2BAR: 50 mM Tris–HCl, pH 7.4, 0.1% CHAPS). […] Nonspecific binding was determined in the presence of 100 μM NECA (A3AR), 100 μM CPA (A1AR), 100 μM NECA (A2AAR), and 10 μM ZM241385 (A2BAR). Incubations were terminated by rapid vacuum filtration to separate the bound and free radioligand through prewetted 96-well GF/C filter plates using a PerkinElmer Filtermate harvester. Filters were subsequently washed 12 times with ice-cold wash buffer (A3AR: 50 mM Tris–HCl, pH 8.0, 10 mM MgCl2, 1 mM EDTA; A1AR and A2AAR: 50 mM Tris–HCl, pH 7.4; A2BAR: 50 mM Tris–HCl, pH 7.4, 0.1% BSA). The plates were dried at 55 °C, and MicroscintTM-20 cocktail (PerkinElmer) was added subsequently.
# (§3) Single point displacement values shown are mean percentages of two individual experiments performed in duplicate. All pKi values shown are mean values ± SEM of three individual experiments performed in duplicate.
# human A2BAR (hA2BAR) = biological target: T3, human A2BAR (hA2BAR) (Homo sapiens, UniProt P29275); experiment: Single-point radioligand displacement, [3H]PSB-603; assay type: binding; conditions: 1 μM probe; CHO-spap cell membranes; co-incubated with radioligand 30 min at 25 °C; mean of two experiments
# T3 construct: expressed in transfected cells; host or cells: CHO-spap cells (CHO-spap-hA2BAR), gift of S.J. Dowell, GlaxoSmithKline; membrane fractions
# T3 sequence (P29275 1-332): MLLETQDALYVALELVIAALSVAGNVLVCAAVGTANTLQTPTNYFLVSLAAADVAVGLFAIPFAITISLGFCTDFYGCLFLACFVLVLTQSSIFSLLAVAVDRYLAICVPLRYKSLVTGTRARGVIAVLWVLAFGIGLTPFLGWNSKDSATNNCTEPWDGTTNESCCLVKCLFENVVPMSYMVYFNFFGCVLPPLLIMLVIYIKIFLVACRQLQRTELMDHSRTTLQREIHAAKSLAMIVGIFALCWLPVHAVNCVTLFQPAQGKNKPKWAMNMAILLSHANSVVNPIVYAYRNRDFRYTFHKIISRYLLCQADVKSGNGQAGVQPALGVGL
# Experimental: as §2, §3
# hA3AR [3] = biological target: T1, hA3AR; experiment: Full curve radioligand displacement assay on the adenosine A3 receptor, [3H]PSB-11; assay type: binding; conditions: mean ± SEM, n=3
# Experimental: Membrane aliquots containing 15 μg of protein (CHOhA3AR) were resuspended in assay buffer (50 mM Tris–HCl, pH 8.0, 10 mM MgCl2, 1 mM EDTA, 0.01% CHAPS). The competing ligand (concentrations ranging from 0.1 to 1000 nM) was added and pre-incubated with the membrane fractions for either 0 or 4 h. The radioligand (10 nM [^3H]PSB-11) was then added and incubated with the samples in a total volume of 100 μL of assay buffer for 30 min at 25 °C. Nonspecific binding was determined in the presence of 100 μM NECA. Incubations were terminated by rapid vacuum filtration through prewetted 96-well GF/C filter plates using a PerkinElmer Filtermate harvester. Filters were subsequently washed 12 times with ice-cold wash buffer (50 mM Tris–HCl, pH 8.0, 10 mM MgCl2, 1 mM EDTA). The plates were dried at 55 °C, and MicroscintTM-20 cocktail (PerkinElmer) was added subsequently. After 3 h, the filter-bound radioactivity was determined using a Tri-Carb 2810TR Liquid Scintillation Analyzer (PerkinElmer).
# as §1
# human A1AR (hA1AR) = biological target: T4, human A1AR (hA1AR) (Homo sapiens, UniProt P30542); experiment: Single-point radioligand displacement, [3H]DPCPX; assay type: binding; conditions: 1 μM probe; CHO cell membranes; co-incubated with radioligand 30 min at 25 °C; mean of two experiments
# T4 construct: expressed in transfected cells; host or cells: CHO cells (CHOhA1AR), gift of Prof; S.J. Hill, University of Nottingham; membrane fractions
# T4 sequence (P30542 1-326): T2 sequence (P30542 1-326)
# Experimental: as §2, §3
# human A2AAR (hA2AAR) = biological target: T5, human A2AAR (hA2AAR) (Homo sapiens, UniProt P29274); experiment: Single-point radioligand displacement, [3H]ZM241385; assay type: binding; conditions: 1 μM probe; HEK293 cell membranes; co-incubated with radioligand 30 min at 25 °C; mean of two experiments
# T5 construct: expressed in transfected cells; host or cells: HEK293 cells (HEKhA2AAR), gift of Dr. J. Wang, Biogen; membrane fractions
# T5 sequence (P29274 whole entry): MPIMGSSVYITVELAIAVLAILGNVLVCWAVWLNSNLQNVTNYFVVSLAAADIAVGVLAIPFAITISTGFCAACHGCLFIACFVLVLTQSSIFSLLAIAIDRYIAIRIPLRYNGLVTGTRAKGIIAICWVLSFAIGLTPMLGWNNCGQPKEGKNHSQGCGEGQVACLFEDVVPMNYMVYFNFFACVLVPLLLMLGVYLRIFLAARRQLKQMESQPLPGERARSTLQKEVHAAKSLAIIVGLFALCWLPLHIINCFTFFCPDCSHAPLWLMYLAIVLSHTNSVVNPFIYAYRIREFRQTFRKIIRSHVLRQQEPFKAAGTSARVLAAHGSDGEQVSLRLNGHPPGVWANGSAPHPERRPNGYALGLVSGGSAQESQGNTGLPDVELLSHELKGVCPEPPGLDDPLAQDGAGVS
# Experimental: as §2, §3
structure (smiles),measurement,setting,value
"CCCn1c(=O)c2c(nc3cc(OC)ccn32)n(CCCNC(=O)c2ccc(S(C)(=O)=O)cc2)c1=O [LUF7714, reference compound]",binding to hA3AR after wash-out ([3H]PSB-11 binding recovery),hA3AR [1],full recovery of radioligand binding
CCCn1c(=O)[nH]c2nc(-c3ccc(S(=O)(=O)N4CCN(c5ccc(Cl)cc5)CC4)cc3)[nH]c2c1=O [[^3H]PSB603],Kd,hA2BAR,1.7 nM
"COc1ccn2c(c1)nc1c2c(=O)[nH]c(=O)n1CCCNC(=O)OC(C)(C)C [compound 11, tert-Butyl-(3-(8-methoxy-2,4-dioxo-3,4-dihydropyrido[2,1-f]purin-1(2H)-yl)propyl)carbamate]",selectivity toward the hA3AR over the hA1AR,hA1AR,> 7 fold
"C#CCn1c(=O)c2c(nc3cc(OC)ccn32)n(CCCNC(=O)c2ccc(S(=O)(=O)F)cc2)c1=O [compound 13, 4-((3-(8-Methoxy-2,4-dioxo-3-(prop-2-yn-1-yl)-3,4-dihydropyrido[2,1-f]purin-1(2H)-yl)propyl)carbamoyl)benzenesulfonyl fluoride]","% specific [3H]PSB-11 displacement, hA3AR",hA3AR [2],92%
same,"% specific [3H]PSB-603 displacement, hA2BAR",human A2BAR (hA2BAR),5%
same,apparent pKi (pre-0 h),"hA3AR [3]; CHO-hA3AR membranes, 25 °C, 0.5 h co-incubation of probe and radioligand, no pre-incubation",7.17 ± 0.04
same,apparent pKi (pre-4 h),"hA3AR [3]; CHO-hA3AR membranes, 25 °C, 4 h pre-incubation with probe then 0.5 h co-incubation with radioligand",8.38 ± 0.05 ^d
same,"fold change, ratio Ki(0 h)/Ki(4 h)",hA3AR [3]; hA3AR,16.6 ± 3.5
same,"% specific [3H]DPCPX displacement, hA1AR",human A1AR (hA1AR),25%
same,binding to hA3AR after wash-out ([3H]PSB-11 binding recovery),hA3AR [1],persistent binding
same,"% specific [3H]ZM241385 displacement, hA2AAR",human A2AAR (hA2AAR),8%
